Where no end group is shown, it is not given here.
Tests used:
IκBα = assay: Western blot of IκBα phosphorylation in adipocytes with palmitate-induced inflammation; format: cell-based; details: 3T3-L1 adipocytes, inflammation induced by 25 μM palmitate; 0.2, 2, 20 μg/mL; 24 hours; Western blot vs PA control (FIGS. 5a, 5b)
Method: An experiment was performed to determine whether the peptide complex prepared in Preparation Example 1 induces a decrease in the phosphorylation of IκBα and a decrease in the expression level of the inflammatory cytokine TNFα in adipocytes under an inflammatory state induced by palmitate treatment.
When 3T3-L1 preadipocytes reached 80% confluence, they were seeded at 5×10^3 cells/well in a 96-well plate and used for the experiment. Two days after reaching confluence, the medium was replaced with a differentiation-inducing medium to induce the differentiation into adipocytes. Two days after the induction, the cells were cultured for 2 days in a medium containing 10% FBS and 10 μg/mL insulin, and then the medium was replaced with 10% FBS every days 2 until their differentiation into adipocytes. Once the differentiation was complete, the medium was replaced with a serum-free medium and cultured for 4 hours to induce starvation. After treating with 25 μM palmitate for 30 minutes, the peptide complexes were treated at concentrations of 0.2 μg/mL, 2 μg/mL, and 20 μg/mL and incubated for 24 hours. The control group (PA) was treated only with palmitate but not with the peptide complex. After dissolving by adding dissolution buffer thereto, the proteins obtained by centrifugation at 4° C. and 12,000 rpm for 30 minutes were quantified using a BCA kit. […]

AMPK = assay: Western blot of AMPK phosphorylation in myocytes with palmitate-induced insulin metabolic disorder; format: cell-based, mouse; details: C2C12 myocytes in insulin metabolic disorder induced by palmitate treatment; 0.2, 2, 20 μg/mL; 24 hours; Western blot (FIGS. 7a, 7b)
Method: An experiment was performed to determine whether the peptide complex increases AMPK phosphorylation and SIRT1 expression levels in myocytes in a state of insulin metabolic disorder induced by palmitate treatment.
C2C12 cells, mouse-derived myoblasts, were cultured in DMEM medium containing 1% P/S and 2% BCS. When the cell confluency reached 70-80%, the cells were seeded in a 6-well culture plate. When the cell confluency in the 6-well culture plate reached 100%, the medium was replaced with differentiation medium (1% P/S, 2% horse serum), and thereafter, the differentiation medium (1% P/S, 2% horse serum) was replaced once every two days. Five days after the first replacement, the peptide complex was treated at concentrations of 0.2 μg/mL, 2 μg/mL, and 20 μg/mL and cultured for 24 hours. The group untreated with the peptide complex was used as the control. After dissolving by adding dissolution buffer thereto, the proteins obtained were centrifuged at 4° C. and 12,000 rpm for 30 minutes, and quantified using a BCA kit. The proteins were subjected to sodium dodecyl sulfate-polyacrylamide gel electrophoresis (SDS-PAGE) and then electrotransferred onto a membrane. The membrane with the proteins attached was blocked by treating it with 5% skim milk, and then the primary antibody was reacted overnight at 4° C. […]

[1] = system: AMP-activated protein kinase (AMPK); assay: Western blot of AMPK phosphorylation in palmitate-treated adipocytes (insulin metabolic disorder); format: cell-based; details: 3T3-L1 adipocytes, 25 μM palmitate 30 minutes; 0.2, 2, 20 μg/mL; 24 hours; Western blot (FIGS. 3a, 3b)
Method: An experiment was performed to determine whether the peptide complex prepared in Preparation Example 1 increases the phosphorylation of AMP-activated protein kinase (AMPK) and the expression level of SIRT1 (sirtuin1) protein in adipocytes in a state of insulin metabolic disorder induced by palmitate treatment.
When 3T3-L1 preadipocytes reached 80% confluence, they were seeded at 5×10^3 cells/well in a 96-well plate and used for the experiment. Two days after reaching confluence, the medium was replaced with a differentiation-inducing medium to induce the differentiation into adipocytes, and two days after the induction, the cells were cultured for 2 days in a medium containing 10% FBS and 10 μg/mL insulin, and then the medium was replaced with 10% FBS every 2 days until their differentiation into adipocytes. Once differentiation was complete, the medium was replaced with a serum-free medium and cultured for 4 hours to induce starvation. After 30 minutes of treatment with 25 μM palmitate, the peptide complexes were treated at concentrations of 0.2 μg/mL, 2 μg/mL, and 20 μg/mL and incubated for 24 hours. After dissolving by adding dissolution buffer, the proteins obtained by centrifugation at 4° C. and 12,000 rpm for 30 minutes were quantified using a BCA kit. […]

## peptide complex: prepared by mixing equal amounts of the peptide of SEQ ID NO: 1 (LKTRN) and the peptide of SEQ ID NO: 2 (KGSATGWMA) (also: mixture of two peptides)
IκBα
  phosphorylation of IκBα: reduced
AMPK
  phosphorylation of AMPK: increased
[1]
  phosphorylation of AMPKα: increased
